Each structure is given as a SMILES string. Bounds are passed on as bounds.

Experiment [1] has as its target HER2 (WT) expressing Ba/F3 stable cell line (Homo sapiens, UniProt P04626). Kind of experiment: Cellular proliferation (Alamar Blue) assay, HER2 WT Ba/F3. The format is cell-based. Conditions: HER2 WT Ba/F3, 72 hr, read-out: HER2 WT Ba/F3 IC50. How it is done:
(§1) Example 3: Cellular Proliferation (Alamar Blue) Assays
(§2) • 1. EGFR(D770_N771insSVD) expressing Ba/F3 stable cell line • 2. EGFR (A767_dupASV) expressing Ba/F3 stable cell line • 3. A431 cells • 4. BTER2 (A775_G776insYVMA) expressing Ba/F3 stable cell line • 5. BTER2 (WT) expressing Ba/F3 stable cell line • 6. BT-474 cells
(§3) • 1. Seed cells at 5000 for A431 and 15,000 cells for Ba/F3 in 100 μL/well in complete media (for A431: DMEM with 10% FBS and for Ba/F3 cells: RPMI with 10% FBS) in 96-well tissue culture plate. Leave outer wells without cells for background measurements. Incubate at 37 degree Celsius in 5% CO2 humidified incubator for 16-18 hours. • 2. Add 0.025 ml of 5× concentration compound dilution or DMSO control. Final compound concentration range is 10-0.0005 μM prepared in 3-fold serial dilutions. Incubate for 72 hr at 37 degree Celsius in […] humidified incubator. • 3. Add 0.0125 mL Alamar Blue™ reagent to each well with multi-channel pipette and tap gently on each side of the plate to mix. Incubate for 3 hours at 37 degree Celsius in […] humidified incubator. • 4. Read plates on fluorescence reader (Tecan Spark Control, Device: Spark, Serial #: 1801006040) at 540 nm excitation, 590 nm emission wavelength. • 5. Data analysis was performed using XLfit 5.5.0.5.
A general note: Resazurin is reduced to fluorescent resorufin, in cell work by metabolically active cells.

In the next experiment the test system is A431 cells. Kind of experiment: Cellular proliferation (Alamar Blue) assay, A431. The format is cell-based. Particulars: Homo sapiens, A-431; A431 cells, 72 hr, Alamar Blue; read-out: A431 IC50. The gist of the method: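 Following a 16–18 h pre-incubation, cells received compound or DMSO for 72 h at 37 °C across a 10–0.0005 μM final range. Proliferation was then scored by Alamar Blue fluorescence (540 nm excitation, 590 nm emission) after 3 h.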

Another experiment relates to BT-474 cells. Kind of experiment: Cellular proliferation (Alamar Blue) assay, BT-474. The format is cell-based. Particulars: Homo sapiens. How it is done: as §1, §2, §3
For the next experiment, the target named is T1, EGFR (T790M/L858R) (Homo sapiens, UniProt P00533, L858R/T790M).
T1 construct: GST; purchased Proqinase
As to the kind of experiment: EGFR L858R/T790M enzyme inhibition assay (HTRF). The format is biochemical. Conditions: 5 μM ATP, 60 min, read-out: EGFR_L858R T790M_IC50_nM. An outline of the steps:
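HTRF kinase assay with 2.5 nM GST-EGFR T790M/L858R, 0.5 μM biotinylated gastrin peptide and 5 μM ATP in HEPES pH 7.4 with Mg/Mn, 60 min at room temperature; compounds from 10 μM top. Phosphotyrosine detected by Eu anti-pTyr/SA-APC; IC50 from % inhibition.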

For experiment [2], the target named is EGFR (A767_dupASV) expressing Ba/F3 stable cell line (Homo sapiens, UniProt P00533, DUP767-769, cells depend on it). As to the kind of experiment: Cellular proliferation (Alamar Blue) assay, EGFR A767_dupASV Ba/F3. In kind it is cell-based. Conditions: EGFR A767_dupASV Ba/F3, 72 hr, read-out: A767 IC50. The gist of the method:
(§4)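 Ba/F3 lines (15,000 cells/well, RPMI with 10% FBS) expressing mutant EGFR or HER2, plus BT-474 cells, treated 72 h at 37 °C with compound at 10-0.0005 μM final, 3-fold dilutions. Viability by Alamar Blue after 3 h, fluorescence 540 nm excitation/590 nm emission.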

Experiment [3] relates to H1975 cells (L858R_T790M mutant). Kind of experiment: H1975 proliferation assay. In kind it is cell-based. Particulars: Homo sapiens, NCI-H1975; read-out: Proliferation_Assay H1975 cells-EC50_nM L858R_T790M_mutant.
The target in experiment [4] is HER2 (A775_G776insYVMA) expressing Ba/F3 stable cell line (Homo sapiens, UniProt P04626, DUP772-775, cells depend on it). As to the kind of experiment: Cellular proliferation (Alamar Blue) assay, HER2 YVMA Ba/F3. In kind it is cell-based. Particulars: HER2 A775_G776insYVMA Ba/F3, 72 hr, read-out: YVMA IC50. The gist of the method: as §4
For experiment [5], the target named is EGFR(D770_N771insSVD) expressing Ba/F3 stable cell line (Homo sapiens, UniProt P00533, DUP768-770, cells depend on it). Kind of experiment: Cellular proliferation (Alamar Blue) assay, EGFR D770_N771insSVD Ba/F3. In kind it is cell-based. Conditions: EGFR D770_N771insSVD Ba/F3, 72 hr, read-out: D770 IC50. An outline of the steps: as §4
EGFR(D770_N771insSVD) expressing Ba/F3 stable cell line, sequence (P00533 with tags, fused parts or gaps DUP768-770): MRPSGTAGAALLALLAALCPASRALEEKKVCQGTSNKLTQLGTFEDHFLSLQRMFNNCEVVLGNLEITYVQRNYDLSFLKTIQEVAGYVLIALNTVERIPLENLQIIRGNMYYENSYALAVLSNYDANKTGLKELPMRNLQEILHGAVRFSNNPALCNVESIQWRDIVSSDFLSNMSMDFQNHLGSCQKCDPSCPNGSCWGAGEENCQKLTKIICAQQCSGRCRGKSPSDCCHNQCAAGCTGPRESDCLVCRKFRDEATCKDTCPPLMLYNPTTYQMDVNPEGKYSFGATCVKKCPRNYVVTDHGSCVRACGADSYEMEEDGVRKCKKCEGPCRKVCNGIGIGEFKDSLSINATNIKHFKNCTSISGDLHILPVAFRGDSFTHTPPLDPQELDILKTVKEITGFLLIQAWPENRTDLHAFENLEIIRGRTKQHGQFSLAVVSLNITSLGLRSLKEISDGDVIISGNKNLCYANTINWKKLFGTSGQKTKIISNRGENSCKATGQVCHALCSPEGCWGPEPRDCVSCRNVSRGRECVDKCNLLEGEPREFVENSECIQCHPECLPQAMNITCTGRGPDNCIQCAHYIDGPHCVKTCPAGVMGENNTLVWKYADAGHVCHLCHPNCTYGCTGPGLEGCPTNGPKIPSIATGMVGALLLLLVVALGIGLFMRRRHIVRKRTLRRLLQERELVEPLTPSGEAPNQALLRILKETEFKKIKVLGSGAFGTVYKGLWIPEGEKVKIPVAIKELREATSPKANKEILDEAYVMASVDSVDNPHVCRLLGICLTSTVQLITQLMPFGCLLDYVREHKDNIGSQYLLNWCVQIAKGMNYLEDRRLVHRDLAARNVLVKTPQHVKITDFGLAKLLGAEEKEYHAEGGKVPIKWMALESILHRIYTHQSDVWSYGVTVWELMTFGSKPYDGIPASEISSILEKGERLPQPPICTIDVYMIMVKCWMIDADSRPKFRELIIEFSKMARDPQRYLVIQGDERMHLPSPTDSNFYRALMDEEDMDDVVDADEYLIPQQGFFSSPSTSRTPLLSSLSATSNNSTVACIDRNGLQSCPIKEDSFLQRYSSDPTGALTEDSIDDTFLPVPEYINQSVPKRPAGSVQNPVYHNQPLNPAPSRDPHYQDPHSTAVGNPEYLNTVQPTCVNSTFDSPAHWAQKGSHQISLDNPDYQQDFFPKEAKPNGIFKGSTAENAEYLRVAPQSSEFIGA

HER2 (WT) expressing Ba/F3 stable cell line, sequence (P04626 whole entry, change not shown): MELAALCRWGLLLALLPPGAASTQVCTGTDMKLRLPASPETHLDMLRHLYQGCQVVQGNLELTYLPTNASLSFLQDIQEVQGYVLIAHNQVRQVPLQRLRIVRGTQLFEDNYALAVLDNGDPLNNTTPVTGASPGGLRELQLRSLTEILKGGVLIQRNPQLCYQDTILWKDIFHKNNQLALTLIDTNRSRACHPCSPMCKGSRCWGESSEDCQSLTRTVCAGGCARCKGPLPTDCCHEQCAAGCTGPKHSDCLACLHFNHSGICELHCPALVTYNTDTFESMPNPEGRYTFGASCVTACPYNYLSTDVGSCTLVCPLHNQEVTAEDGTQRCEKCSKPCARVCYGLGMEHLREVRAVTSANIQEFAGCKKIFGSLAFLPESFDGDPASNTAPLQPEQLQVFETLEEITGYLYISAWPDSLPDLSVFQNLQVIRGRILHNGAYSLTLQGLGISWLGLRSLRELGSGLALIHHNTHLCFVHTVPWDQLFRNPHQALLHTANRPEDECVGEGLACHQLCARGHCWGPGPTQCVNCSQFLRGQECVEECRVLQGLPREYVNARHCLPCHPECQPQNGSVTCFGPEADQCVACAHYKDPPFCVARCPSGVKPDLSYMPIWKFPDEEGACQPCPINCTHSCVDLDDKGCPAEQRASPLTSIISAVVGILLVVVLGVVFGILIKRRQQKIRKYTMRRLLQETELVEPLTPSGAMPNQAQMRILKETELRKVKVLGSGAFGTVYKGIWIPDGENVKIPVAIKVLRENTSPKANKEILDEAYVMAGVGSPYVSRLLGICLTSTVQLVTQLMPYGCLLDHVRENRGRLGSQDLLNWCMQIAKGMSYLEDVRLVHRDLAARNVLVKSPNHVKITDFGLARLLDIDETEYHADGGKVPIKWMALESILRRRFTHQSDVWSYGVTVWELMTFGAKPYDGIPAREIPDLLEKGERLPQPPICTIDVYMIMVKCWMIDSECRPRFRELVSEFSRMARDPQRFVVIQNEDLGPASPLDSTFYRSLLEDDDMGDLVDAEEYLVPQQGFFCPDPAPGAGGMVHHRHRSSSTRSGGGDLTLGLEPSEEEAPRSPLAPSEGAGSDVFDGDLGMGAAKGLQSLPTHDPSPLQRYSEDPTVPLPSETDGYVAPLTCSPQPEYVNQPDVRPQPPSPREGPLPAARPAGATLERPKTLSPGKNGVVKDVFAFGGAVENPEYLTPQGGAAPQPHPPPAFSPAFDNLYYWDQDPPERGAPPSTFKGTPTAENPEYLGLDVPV
T1 sequence (P00533 25-1210 T790M/L858R): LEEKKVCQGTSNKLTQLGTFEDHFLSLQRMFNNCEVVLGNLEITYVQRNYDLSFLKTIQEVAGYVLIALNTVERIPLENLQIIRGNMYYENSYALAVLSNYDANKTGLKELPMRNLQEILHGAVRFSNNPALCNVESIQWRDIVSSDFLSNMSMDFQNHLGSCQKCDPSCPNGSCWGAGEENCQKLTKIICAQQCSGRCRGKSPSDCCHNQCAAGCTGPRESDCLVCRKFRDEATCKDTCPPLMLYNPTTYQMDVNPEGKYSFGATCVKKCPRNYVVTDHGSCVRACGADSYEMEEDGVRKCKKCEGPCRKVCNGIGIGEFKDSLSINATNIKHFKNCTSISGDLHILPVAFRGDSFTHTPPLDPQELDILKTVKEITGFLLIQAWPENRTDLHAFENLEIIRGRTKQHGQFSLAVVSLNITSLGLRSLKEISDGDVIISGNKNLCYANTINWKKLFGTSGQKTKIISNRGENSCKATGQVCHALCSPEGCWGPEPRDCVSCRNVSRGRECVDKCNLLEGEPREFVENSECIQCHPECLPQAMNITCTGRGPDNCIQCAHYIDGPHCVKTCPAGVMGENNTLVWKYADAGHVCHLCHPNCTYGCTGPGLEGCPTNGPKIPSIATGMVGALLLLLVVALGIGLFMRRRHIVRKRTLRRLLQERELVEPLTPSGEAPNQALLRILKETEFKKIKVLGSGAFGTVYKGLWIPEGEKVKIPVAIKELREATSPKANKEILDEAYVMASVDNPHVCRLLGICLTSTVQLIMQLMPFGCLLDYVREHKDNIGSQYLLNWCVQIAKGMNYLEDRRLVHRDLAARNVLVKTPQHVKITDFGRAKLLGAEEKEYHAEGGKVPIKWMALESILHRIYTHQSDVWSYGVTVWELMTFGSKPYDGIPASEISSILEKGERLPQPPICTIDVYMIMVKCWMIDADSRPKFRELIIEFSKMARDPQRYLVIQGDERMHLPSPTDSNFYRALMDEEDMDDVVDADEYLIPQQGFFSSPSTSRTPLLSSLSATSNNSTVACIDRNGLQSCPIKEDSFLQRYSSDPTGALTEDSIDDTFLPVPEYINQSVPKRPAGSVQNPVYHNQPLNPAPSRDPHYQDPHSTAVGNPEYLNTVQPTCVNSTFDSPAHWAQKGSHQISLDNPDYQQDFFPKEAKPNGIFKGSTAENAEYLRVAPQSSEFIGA
HER2 (A775_G776insYVMA) expressing Ba/F3 stable cell line, sequence (P04626 with tags, fused parts or gaps DUP772-775): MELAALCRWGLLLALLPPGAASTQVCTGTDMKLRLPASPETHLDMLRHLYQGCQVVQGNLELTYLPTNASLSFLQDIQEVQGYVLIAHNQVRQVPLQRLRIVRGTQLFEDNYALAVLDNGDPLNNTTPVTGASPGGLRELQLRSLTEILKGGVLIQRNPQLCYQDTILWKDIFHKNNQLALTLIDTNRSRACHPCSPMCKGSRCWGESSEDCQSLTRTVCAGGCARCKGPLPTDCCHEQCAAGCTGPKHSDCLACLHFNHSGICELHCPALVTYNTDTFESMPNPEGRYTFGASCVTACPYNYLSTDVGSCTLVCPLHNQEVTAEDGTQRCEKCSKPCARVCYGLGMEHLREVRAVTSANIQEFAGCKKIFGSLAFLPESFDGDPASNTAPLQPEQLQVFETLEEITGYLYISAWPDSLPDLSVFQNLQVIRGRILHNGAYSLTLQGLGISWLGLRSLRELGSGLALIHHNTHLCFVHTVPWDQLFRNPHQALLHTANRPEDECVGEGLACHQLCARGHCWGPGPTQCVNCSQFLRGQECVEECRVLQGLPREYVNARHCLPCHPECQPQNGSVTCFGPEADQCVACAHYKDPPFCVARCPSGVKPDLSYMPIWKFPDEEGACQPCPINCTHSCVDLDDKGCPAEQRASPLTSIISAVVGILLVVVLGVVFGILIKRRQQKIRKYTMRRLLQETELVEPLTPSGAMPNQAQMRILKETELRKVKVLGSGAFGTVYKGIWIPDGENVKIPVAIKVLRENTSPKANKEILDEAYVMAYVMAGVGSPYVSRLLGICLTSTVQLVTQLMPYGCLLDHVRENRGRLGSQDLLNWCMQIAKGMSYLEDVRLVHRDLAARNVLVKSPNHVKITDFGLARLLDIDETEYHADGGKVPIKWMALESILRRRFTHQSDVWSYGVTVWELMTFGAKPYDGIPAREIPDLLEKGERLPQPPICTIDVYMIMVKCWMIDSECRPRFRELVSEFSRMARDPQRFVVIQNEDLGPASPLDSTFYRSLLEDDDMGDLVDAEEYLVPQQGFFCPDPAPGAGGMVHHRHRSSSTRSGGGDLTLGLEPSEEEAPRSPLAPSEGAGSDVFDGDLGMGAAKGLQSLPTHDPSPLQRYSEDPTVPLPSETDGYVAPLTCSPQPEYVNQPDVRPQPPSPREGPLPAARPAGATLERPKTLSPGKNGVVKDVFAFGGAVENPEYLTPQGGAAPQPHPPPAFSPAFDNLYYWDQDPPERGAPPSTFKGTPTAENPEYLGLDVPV

Take `C=CC(=O)Nc1cccc(N2C(=O)N(Cc3ccccc3)Cc3cnc(Nc4cnn(C)c4)nc32)c1` [Compound 1, N-(3-(3-benzyl-7-((1-methyl-1H-pyrazol-4-yl)amino)-2-oxo-3,4-dihydropyrimido[4,5-d]pyrimidin-1(2H)-yl)phenyl)acrylamide]: the GI50 is < 0.5 nM in experiment [1], 14 nM in experiment [2], 9.9 nM in experiment [4] and 4 nM in experiment [5]. Further, the figures for the IC50 in the experiment on A431 cells, in the experiment on BT-474 cells and at EGFR (T790M/L858R) were 65 nM, 7.7 nM and 0.4 nM, respectively. The EC50 in experiment [3] is 6.8 nM.

Turning to `CN(C)C/C=C/C(=O)Nc1cccc(N2C(=O)N(Cc3ccccc3)Cc3cnc(Nc4cn(C)nc4Cl)nc32)c1` [Compound 20, (E)-N-(3-(3-benzyl-7-((3-chloro-1-methyl-1H-pyrazol-4-yl)amino)-2-oxo-3,4-dihydropyrimido[4,5-d]pyrimidin-1(2H)-yl)phenyl)-4-(dimethylamino)but-2-enamide], the GI50 in experiment [1] amounted to 0.7 nM; in experiment [2] it was 34 nM; in experiment [4], 14.9 nM; in experiment [5] it was 35 nM. Moreover, the results for the IC50 in the experiment on A431 cells, with BT-474 cells and at EGFR (T790M/L858R) were 595 nM, 4.1 nM and 1 nM, respectively. In addition, the EC50 in experiment [3] stood at 2 nM.

For the origin of these results see patent US20230027026A1, “FUSED PYRIMIDINE COMPOUNDS, COMPOSITIONS AND MEDICINAL APPLICATIONS THEREOF” (JUBILANT BIOSYS LIMITED, priority 2019, published 2023).
